In this test the test system is P388 leukemia ip, CD2F1 mice, survival T/C. In words: NCI In Vivo Anticancer Drug Screen. Data for tumor model P388 Leukemia (intraperitoneal) in CD2F1 (CDF1) mice. As to conditions: endpoint: median survival time, higher = longer survival. In outline: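 Mice carrying the transplanted tumor received test compound or vehicle. Survival was recorded in each group, and the value is the treated-group measurement divided by that of the vehicle-treated control group.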

Setting [1] is: dose: 12.5 mg/kg/injection, schedule: Q01DX009 (ip), vehicle: saline with Tween-80.
The mark [2] stands for this setting: dose: 25.0 mg/kg/injection, schedule: Q01DX009 (ip), vehicle: saline with Tween-80.
The mark [3] stands for this setting: dose: 50.0 mg/kg/injection, schedule: Q01DX009 (ip), vehicle: saline with Tween-80.
The mark [4] stands for this setting: dose: 100.0 mg/kg/injection, schedule: Q01DX009 (ip), vehicle: saline with Tween-80.
Setting [5] is: dose: 200.0 mg/kg/injection, schedule: Q01DX009 (ip), vehicle: saline with Tween-80.
[6] abbreviates: dose: 400.0 mg/kg/injection, schedule: Q01DX009 (ip), vehicle: saline with Tween-80.
[7] abbreviates: dose: 50.0 mg/kg/injection, schedule: Q01DX005 (ip), vehicle: saline with Tween-80.
Setting [8] is: dose: 100.0 mg/kg/injection, schedule: Q01DX005 (ip), vehicle: saline with Tween-80.
Setting [9] is: dose: 200.0 mg/kg/injection, schedule: Q01DX005 (ip), vehicle: saline with Tween-80.
Where [10] appears, read: dose: 120.0 mg/kg/injection, schedule: Q01DX005 (ip), vehicle: Klucel (hydroxypropylcellulose) (HPC).
Setting [11] is: dose: 240.0 mg/kg/injection, schedule: Q01DX005 (ip), vehicle: Klucel (hydroxypropylcellulose) (HPC).
Where [12] appears, read: dose: 1.56 mg/kg/injection, schedule: Q01DX009 (ip), vehicle: water.
Setting [13] is: dose: 3.13 mg/kg/injection, schedule: Q01DX009 (ip), vehicle: water.
[14] abbreviates: dose: 6.25 mg/kg/injection, schedule: Q01DX009 (ip), vehicle: water.
[15] abbreviates: dose: 12.5 mg/kg/injection, schedule: Q01DX009 (ip), vehicle: water.
[16] abbreviates: dose: 25.0 mg/kg/injection, schedule: Q01DX009 (ip), vehicle: water.
[17] abbreviates: dose: 25.0 mg/kg/injection, schedule: Q04DX002 (ip), vehicle: saline with Tween-80.
Setting [18] is: dose: 50.0 mg/kg/injection, schedule: Q04DX002 (ip), vehicle: saline with Tween-80.
[19] abbreviates: dose: 100.0 mg/kg/injection, schedule: Q04DX002 (ip), vehicle: saline with Tween-80.

Structures are written as SMILES. Several values for one entry are separate records, joined by “and”; a condition that tells them apart may be missing. Equal entries are not always repeated. Inconclusive results and toxic doses are left out.

With `O=S(=O)(Cl)C(F)(F)C(F)(F)C(F)(F)C(F)(F)C(F)(F)C(F)(F)F`, the T/C was 100 % of control under setting [1]; 104 % of control under setting [2]; 100 % of control and 93 % of control under setting [3]; 112 % of control under setting [4].
As to `CC1=CC2OC3CC4OC(=O)/C=C/C=C/C(C(C)O)OCC(O)/C(C)=C/C(=O)OCC2(CC1O)C4(C)C31CO1` (stereo not drawn), the T/C is 163 % of control (dose: 1.25 mg/kg/injection, schedule: Q01DX005 (ip), vehicle: saline + alcohol); 156 % of control and 224 % of control (dose: 2.5 mg/kg/injection, schedule: Q01DX005 (ip), vehicle: saline + alcohol); 198 % of control and 243 % of control (dose: 5.0 mg/kg/injection, schedule: Q01DX005 (ip), vehicle: saline + alcohol).
In the case of `CC(=O)OCN1C(=O)C2C3C=CC(C2C1=O)C1C2C(=O)N(COC(C)=O)C(=O)C2C31` (stereo not drawn), the T/C was 117 % of control under setting [2], 115 % of control under setting [3], 180 % of control under setting [5] and 208 % of control under setting [6].
On to `N=C(N)c1ccc(NN=Nc2cccc3c2Oc2ccccc2O3)cc1`, for which the T/C is 106 % of control under setting [7], 103 % of control under setting [8] and 95 % of control under setting [9].
In the case of `Cc1ccc(NCC2(/N=C/c3ccccc3)OC(CO)C(O)C2O)cc1` (stereo not drawn), the T/C reads like this: (dose: 266.0 mg/kg/injection, schedule: Q01DX009 (ip), vehicle: Klucel (hydroxypropylcellulose) (HPC)) 150 % of control and 157 % of control; (dose: 400.0 mg/kg/injection, schedule: Q01DX009 (ip), vehicle: Klucel (hydroxypropylcellulose) (HPC)) 170 % of control and 176 % of control.
Regarding `C=CC1(C)CC(C)=NC1C(=O)c1c[nH]c2ccccc12` (stereo not drawn), the T/C (dose: 12.5 mg/kg/injection, schedule: Q01DX005 (ip), vehicle: DMSO) was 100 % of control; the T/C (dose: 25.0 mg/kg/injection, schedule: Q01DX005 (ip), vehicle: DMSO) is 97 % of control; the T/C (dose: 50.0 mg/kg/injection, schedule: Q01DX005 (ip), vehicle: DMSO) was 90 % of control; the T/C (dose: 100.0 mg/kg/injection, schedule: Q01DX005 (ip), vehicle: DMSO) was 94 % of control; the T/C (dose: 200.0 mg/kg/injection, schedule: Q01DX005 (ip), vehicle: DMSO) was 90 % of control.
As for `CCS(=O)(=O)OCCCCOS(=O)(=O)CC`, the T/C was 100 % of control and 97 % of control under setting [1]; 103 % of control and 93 % of control under setting [2]; 115 % of control and 90 % of control under setting [3]; 114 % of control and 90 % of control under setting [4].
`Cn1c(N)nc2c([nH]c(=O)n2C2OC(CO)C(O)C2O)c1=O` (stereo not drawn): the T/C reads like this: (dose: 60.0 mg/kg/injection, schedule: Q01DX005 (ip), vehicle: Klucel (hydroxypropylcellulose) (HPC)) 105 % of control; under setting [10], 111 % of control; under setting [11], 111 % of control.
`COc1cccc2c1C(=O)c1c(O)c3c(c(O)c1C2=O)CC(O)(C(C)=O)CC3OC1CC([N+](C)(C)C)C(O)C(C)O1` (stereo not drawn): the T/C under setting [12] was 101 % of control; the T/C (dose: 3.12 mg/kg/injection, schedule: Q01DX009 (ip), vehicle: water) was 90 % of control; the T/C under setting [13] is 113 % of control; the T/C under setting [14] was 118 % of control; the T/C under setting [15] was 110 % of control and 112 % of control; the T/C under setting [16] is 111 % of control and 120 % of control.
As for `CSC(/C=C1\C=Cc2ccccc2N1C)=N\S(=O)(=O)c1ccc(N)cc1`, the T/C under setting [17] is 107 % of control, the T/C under setting [18] is 100 % of control and the T/C under setting [19] was 102 % of control.
Take `Cc1cc(Br)c(N)c(C(O)(C(F)(F)F)C(F)(F)F)c1`: the T/C is, setting by setting: (dose: 50.0 mg/kg/injection, schedule: Q01DX009 (ip), vehicle: Klucel (hydroxypropylcellulose) (HPC)) 91 % of control; (dose: 100.0 mg/kg/injection, schedule: Q01DX009 (ip), vehicle: Klucel (hydroxypropylcellulose) (HPC)) 97 % of control; (dose: 200.0 mg/kg/injection, schedule: Q01DX009 (ip), vehicle: Klucel (hydroxypropylcellulose) (HPC)) 108 % of control.
In the case of `CCN(CCCNc1cc(OC)cc2cccnc12)C(C)C`, the T/C is 98 % of control (dose: 3.12 mg/kg/injection, schedule: Q01DX005 (ip), vehicle: saline); 92 % of control (dose: 6.25 mg/kg/injection, schedule: Q01DX005 (ip), vehicle: saline); 107 % of control (dose: 12.5 mg/kg/injection, schedule: Q01DX005 (ip), vehicle: saline).
`CCC(=N/NC(=S)NCCN1CCCCC1)/C(CC)=N\NC(=S)NCCN1CCCCC1`: the T/C by setting is: (dose: 3.13 mg/kg/injection, schedule: Q01DX009 (ip), vehicle: saline with Tween-80) 100 % of control; (dose: 6.25 mg/kg/injection, schedule: Q01DX009 (ip), vehicle: saline with Tween-80) 103 % of control.
Turning to `CCOC(=O)CC(COC)C(Br)(C(=O)OCC)C(=O)OCC` (stereo not drawn), the T/C is 104 % of control under setting [12]; 111 % of control under setting [13]; 107 % of control under setting [14]; 114 % of control under setting [15]; 113 % of control under setting [16].
For the compound `CCCCCC(=O)C(C)(c1nc2nnc(N)n2[nH]c1=O)c1nc2nnc(N)n2[nH]c1=O`, the T/C is, setting by setting: under setting [7], 93 % of control; under setting [8], 93 % of control; under setting [9], 94 % of control.
For the compound `O=C(Cn1nnc(N2CCCCC2)n1)N/N=C/c1ccccc1O`, the T/C was 88 % of control (dose: 30.0 mg/kg/injection, schedule: Q01DX005 (ip), vehicle: Klucel (hydroxypropylcellulose) (HPC)); 95 % of control under setting [10]; 95 % of control under setting [11].
Consider `CSc1nc(NC2OC(CO)C(O)C(O)C2O)c(C(=O)CCl)c(=O)n1C` (stereo not drawn), for which the T/C reads like this: under setting [7], 93 % of control; under setting [8], 91 % of control; under setting [9], 90 % of control.
On to `COC(=O)C(=O)c1c(C(=O)OC)nc2nnc(N)n2c1C1CC1`, for which the T/C (dose: 60.0 mg/kg/injection, schedule: Q01DX005 (ip), vehicle: saline with Tween-80) is 100 % of control; the T/C (dose: 120.0 mg/kg/injection, schedule: Q01DX005 (ip), vehicle: saline with Tween-80) is 107 % of control; the T/C (dose: 240.0 mg/kg/injection, schedule: Q01DX005 (ip), vehicle: saline with Tween-80) is 105 % of control.
Turning to `Cc1ccc(NCCN2CCC(C3CCN(CCNc4ccc(C)c5sc6ccccc6c(=O)c45)CC3)CC2)c2c(=O)c3ccccc3sc12`, the T/C is, setting by setting: (dose: 6.25 mg/kg/injection, schedule: Q01DX005 (ip), vehicle: saline with Tween-80) 90 % of control; (dose: 12.5 mg/kg/injection, schedule: Q01DX005 (ip), vehicle: saline with Tween-80) 97 % of control; (dose: 25.0 mg/kg/injection, schedule: Q01DX005 (ip), vehicle: saline with Tween-80) 95 % of control; under setting [7], 94 % of control.
`CN(C)/C=N/c1c(CO)c(-c2ccccc2)nn1-c1ccccc1`: the T/C under setting [3] is 104 % of control, the T/C under setting [4] was 100 % of control, the T/C under setting [5] is 104 % of control and the T/C under setting [6] is 105 % of control.
`O=P(CCC(O)c1ccccc1)(c1ccccc1)c1ccccc1` (stereo not drawn): the T/C was 100 % of control (dose: 25.0 mg/kg/injection, schedule: Q01DX009 (ip), vehicle: saline sonified) and 90 % of control (dose: 50.0 mg/kg/injection, schedule: Q01DX009 (ip), vehicle: saline sonified).
`CC(=C\c1ccc(Cl)c(Cl)c1)/C(C)=N/NC(N)=Nc1ccc(C)cc1`: the T/C runs as follows: under setting [17], 103 % of control; under setting [18], 111 % of control.
As to `Cc1cccc(N=Nc2c(C)nn(C(=S)S)c2C)c1C`, the T/C is, setting by setting: under setting [19], 100 % of control; (dose: 200.0 mg/kg/injection, schedule: Q04DX002 (ip), vehicle: saline with Tween-80) 99 % of control; (dose: 400.0 mg/kg/injection, schedule: Q04DX002 (ip), vehicle: saline with Tween-80) 98 % of control.
On to `CCN1CCN(CCCl)C1=O`, for which, for the setting “dose: 200.0 mg/kg/injection, schedule: Q01DX009 (ip), vehicle: saline”, the T/C was 160 % of control.

Values taken from PubChem BioAssay AID330 (DTP/NCI, 2004).
